# Data published in patent US20260283205A1, “ACYLATED DIHYDROCHALCONES, METHODS OF PRODUCTION AND USES THEREOF” (SYMRISE AG, priority 2023, published 2026).
# Columns and labels:
# trained flavourist panel = experiment: Sensory profile (impact, intensity, mouthfeel, lingering sweetness) of 5% sucrose solution with added compound; assay type: in vivo; settings: for Lingering sweetness / Impact / Intensity / Mouthfeel: 5% sucrose solution (A1) + HG 50 ppm, compound 9 15 ppm, 41 5 ppm, 57 3 ppm, 73 5 ppm, 89 5 ppm; for Lingering sweetness: sucrose alone scores 1; for Impact: sucrose alone scores 3; for Intensity / Mouthfeel: sucrose alone scores 4
# Protocol: A 5% sucrose solution was prepared. Compounds 9, 41, 57, 73 and 89 were provided as described in Example 3 and purified to >95% with preparative chromatography.
# The sensory profile of the sucrose solution (control) and the sucrose solution including HG (control), compounds 9, 41, 57, 73 or 89 was determined by a trained flavourist panel comparing the impact, intensity and mouthfeel.
# [1] = tested on: panel of 20 trained panellists; experiment: Intrinsic sweetness: concentration in water equally sweet as a 1.5% sucrose solution; assay type: in vivo; settings: no significant difference (p<0.05) to 1.5% sucrose
# Protocol: Compounds 9, 41, 57, 73 and 89 were provided as described in Example 3 and purified to >95% with preparative chromatography. The obtained compounds were used for sensory evaluations.
# The intrinsic sweetness of the compounds was determined by a panel of 20 trained panellists. The intrinsic sweetness of a compound is determined by evaluating the sweetness of the compound at different concentrations in water against a 1.5% sucrose solution.
# A mixture of butanoylated HG and a mixture of pentanoylated HG were provided as described in Example 3.
# The intrinsic sweetness was determined as described in Example 4. As shown in the table, the concentrations of the acylated compounds, which represent equal sweetness as the 1.5% sucrose solution, are approximately ⅕ to ⅛ of the required concentration of HG (non-acylated). Thus, acylation of HG provides a strong increase of the intrinsic sweetness.
# [2] = tested on: trained sensory panel (n=20); experiment: Paired comparison tests (Duo test): sweetness increase of 5% sucrose solution in water; assay type: in vivo; parameters: unit not given here; settings: dosage HG 50, compound 9 10, 41 5, 57 3, 73 5, 89 5 mg/kg
# Protocol: The sensory impact of the compounds 9, 41, 57, 73 and 89 on a 5% sucrose solution in water was analysed by a trained sensory panel (n=20) using a series of paired comparison tests (Duo test). The samples were coded and randomized.
# [3] = tested on: panel of five flavorists (n=5); experiment: Taste descriptors (scale 0-9) of sugar base with sweet tasting / sweet taste modulating substances, without (A) and with (B) compound 41 or 57; assay type: in vivo; settings: for Lingering sweetness (0-9), Δ (B-A) / Mouthfeel (0-9), Δ (B-A) / Onset sweetness (0-9), Δ (B-A) / Overall sweetness (0-9), Δ (B-A) / Mouthfeel (0-9), sample A / Lingering sweetness (0-9), sample A / Onset sweetness (0-9), sample A / Overall sweetness (0-9), sample A: scale 0-9; for Mouthfeel (0-9), sample A / Lingering sweetness (0-9), sample A / Onset sweetness (0-9), sample A / Overall sweetness (0-9), sample A: n=5; for Onset sweetness (0-9), A / Overall sweetness (0-9), A: samples (A): sugar base (5% sucrose+0.1% citric acid) + PH 25, HT 12, HC 50, RS 75, LHG 20, PD 3 or SG 60 mg/kg, without compound 41; for Onset sweetness (0-9), A: base alone 2.0; for Overall sweetness (0-9), A: base alone 3.0
# Protocol: A sugar base (5% sucrose+0.1% citric acid) was provided. Further, the sweet tasting substances RS (20% Rubusoside), SG (90% steviol oligoglucosides), HC (8% Hesperetin dihydrochalcone), LHG (52% mogroside V) and the sweet taste modulating substances PD (>95% Phyllodulcin), HT (>85% Hesperetin) and PH (>98% Phloretin) were provided and added to the sugar base to produce different samples (A).
# A dose of 2 mg/kg compound 41 or, respectively, 1.2 mg/kg compound 57 was added to the samples to obtain samples (B).
# Different taste descriptors were compared between the respective samples (A) and (B) by a panel of five flavorists (n=5) using a scale of 0-9.
# The panelists were asked to neutralize with tap water between each sample and the intensity of the descriptors of each sample were defined before tasting the next sample. The tasting of each RS, SG, HC, LHG, PD, HT or PH (samples (A)) were followed by the samples with added RS, SG, HC, LHG, PD, HT or PH+compound (41 or 57) (samples (B)) with each being compared to the intensities of the base.
# [4] = tested on: panel of five flavorists (n=5); experiment: Sweet taste modulation in lemonade bases with reduced sugar content, descriptor intensities 0-9; assay type: in vivo; settings: 5 mg/kg compound 41 or 3 mg/kg compound 57, intensity 0-9
# Protocol: A dose of 5 mg/kg compound 41 or, respectively, 3 mg/kg compound 57 were applied to different sugar reduced lemonade bases to restore the overall and sweet taste of the respective matrix with reduced sugar content. Different descriptors were determined by a panel of five flavorists (n=5) and given as intensities from 0-9.
# The lemonade bases were “full sugar”, “sugar reduced”, “Stevia Hybride”, “Sugar free base Suc/Ace K” and “Sugar free base Asp/Ace K” with the following recipes: […]
# [5] = cited from earlier work
# [6] = difference between sample B (+2 mg/kg compound 41) and sample A
# [7] = lemonade base "Sugar free base Asp/Ace K"
# [8] = lemonade base "Sugar free base Suc/Ace K"
# [9] = difference between sample B (+1.2 mg/kg compound 57) and sample A
# [10] = compound 41 series, sample A: sugar base (5% sucrose+0.1% citric acid) + sample substance alone at the listed dose (PH 25, HT 12, HC 50, RS 75, LHG 20, PD 3, SG 60 mg/kg)
# [11] = compound 41 series, sample A: sugar base + sample substance alone at the listed dose
# [12] = compound 57 series, sample A: sugar base + sample substance alone at the listed dose
SMILES,Lingering sweetness (trained flavourist panel),Impact (trained flavourist panel),Intensity (trained flavourist panel),Mouthfeel (trained flavourist panel),Concentration of equal sweetness as 1.5% sucrose control [1] [mg/kg],Increase of sweetness [2],"Lingering sweetness (0-9), Δ (B-A) [3, 6]","Mouthfeel (0-9), Δ (B-A) [3, 6]","Lingering sweetness (0-9), Δ (B-A) [3, 9]","Mouthfeel (0-9), Δ (B-A) [3, 9]","Onset sweetness (0-9), Δ (B-A) [3, 9]","Overall sweetness (0-9), Δ (B-A) [3, 9]","Mouthfeel (0-9), sample A [3, 10]","Lingering sweetness (0-9), sample A [3, 11]","Lingering sweetness (0-9), sample A [3, 12]","Mouthfeel (0-9), sample A [3, 12]","Onset sweetness (0-9), sample A [3, 12]","Overall sweetness (0-9), sample A [3, 12]","Onset sweetness (0-9), A [3]","Overall sweetness (0-9), A [3]",also measured
"COc1ccc(CCC(=O)c2c(O)cc(O[C@@H]3O[C@H](COC(C)=O)[C@@H](O)[C@H](O)[C@H]3O)cc2O)cc1O [Compound 9, 6″-O-Acetyl-HG]",2,3,4-5,4-5,15,33.1,–,–,–,–,–,–,–,–,–,–,–,–,–,–,–
"CCCC(=O)OC[C@H]1O[C@@H](Oc2cc(O)c(C(=O)CCc3ccc(OC)c(O)c3)c(O)c2)[C@H](O)[C@@H](O)[C@@H]1O [Compound 41, 6″-O-Butanoyl-HG]",2-3,4-5,5-6,5,5,24.4,1.0,1.0,–,–,–,–,–,–,–,–,–,–,–,–,"Lingering sweetness ([4]; lemonade base ""Stevia Hybrid""): 1; Mouthfeel ([4]; lemonade base ""Stevia Hybrid""): 4.5; Onset ([4]; lemonade base ""Stevia Hybrid""): 4; Overall sweetness ([4]; lemonade base ""Stevia Hybrid""): 5.5; Lingering sweetness [4, 7]: 2.5; Mouthfeel [4, 7]: 3.5; Onset [4, 7]: 4; Overall sweetness [4, 7]: 5; Lingering sweetness [4, 8]: 3; Mouthfeel [4, 8]: 2; Onset [4, 8]: 2.5; Overall sweetness [4, 8]: 4.5; Lingering sweetness ([4]; lemonade base ""Sugar reduced""): 0.5; Mouthfeel ([4]; lemonade base ""Sugar reduced""): 3.5; Onset ([4]; lemonade base ""Sugar reduced""): 4; Overall sweetness ([4]; lemonade base ""Sugar reduced""): 4.5"
"CCCCC(=O)OC[C@H]1O[C@@H](Oc2cc(O)c(C(=O)CCc3ccc(OC)c(O)c3)c(O)c2)[C@H](O)[C@@H](O)[C@@H]1O [Compound 57, 6″-O-Pentanoyl-HG]",3,4-5,5-6,5,3,25.2,–,–,1.0,0.5,0.5,1.0,–,–,–,–,–,–,–,–,"Lingering sweetness ([4]; lemonade base ""Stevia Hybrid""): 2.5; Mouthfeel ([4]; lemonade base ""Stevia Hybrid""): 5; Onset ([4]; lemonade base ""Stevia Hybrid""): 4; Overall sweetness ([4]; lemonade base ""Stevia Hybrid""): 6; Lingering sweetness [4, 7]: 3.5; Mouthfeel [4, 7]: 3.5; Onset [4, 7]: 3.5; Overall sweetness [4, 7]: 5; Lingering sweetness [4, 8]: 4; Mouthfeel [4, 8]: 2.5; Onset [4, 8]: 3; Overall sweetness [4, 8]: 5; Lingering sweetness ([4]; lemonade base ""Sugar reduced""): 2; Mouthfeel ([4]; lemonade base ""Sugar reduced""): 4; Onset ([4]; lemonade base ""Sugar reduced""): 4; Overall sweetness ([4]; lemonade base ""Sugar reduced""): 4.5"
"CCCCCC(=O)OC[C@H]1O[C@@H](Oc2cc(O)c(C(=O)CCc3ccc(OC)c(O)c3)c(O)c2)[C@H](O)[C@@H](O)[C@@H]1O [Compound 73, 6″-O-Hexanoyl-HG]",3-4,4-5,6-7,5,5,23.1,–,–,–,–,–,–,–,–,–,–,–,–,–,–,–
"CCCCCCC(=O)OC[C@H]1O[C@@H](Oc2cc(O)c(C(=O)CCc3ccc(OC)c(O)c3)c(O)c2)[C@H](O)[C@@H](O)[C@@H]1O [Compound 89, 6″-O-Heptanoyl-HG]",3-4,4-5,6-7,5,5,27.7,–,–,–,–,–,–,–,–,–,–,–,–,–,–,–
"COc1ccc(CCC(=O)c2c(O)cc(O[C@H]3O[C@@H](CO)[C@H](O)[C@@H](O)[C@@H]3O)cc2O)cc1O [HG, hesperetin dihydrochalcone-4′-O-β-d-glucoside, reference compound]",2,4,5,4-5,50,34.6,–,–,–,–,–,–,–,–,–,–,–,–,–,–,"sweet taste of HG in water ([5]; 5 mg/kg HG in water): does not taste sweet; isosweet sucrose concentration ([5]; 10 mg/kg HG in water): 0.5%; isosweet sucrose solution concentration ([5]; 20 mg/kg HG in water): 1%; effect on impact, intensity and mouthfeel of the sucrose solution (trained flavourist panel; 5% sucrose solution): increases the impact, intensity and mouthfeel"
"COc1ccc([C@@H]2CC(=O)c3c(O)cc(O)cc3O2)cc1O [HT, Hesperetin]",–,–,–,–,–,–,1.0,0.5,2.0,0.5,1.0,1.5,3.5,0.0,0.0,3.5,2.5,3.5,2.5,3.5,–
"COc1ccc([C@H]2Cc3cccc(O)c3C(=O)O2)cc1O [PD, Phyllodulcin]",–,–,–,–,–,–,1.0,0.5,0.5,1.0,0.5,1.0,4.0,1.0,1.0,3.5,2.5,4.0,2.5,4.0,–
"O=C(CCc1ccc(O)cc1)c1c(O)cc(O)cc1O [PH, Phloretin]",–,–,–,–,–,–,1.0,0.5,1.5,0.5,0.5,1.0,4.0,0.0,0.0,3.5,2.5,3.5,3.0,4.0,–
